Assay results reported in ChEMBL document CHEMBL3112428, “Biological evaluation of diazene derivatives as anti-tubercular compounds” (Eur J Med Chem, 2014).
Activity calls are given as the source filed them. The rule behind the calls is not given here.

Columns and labels:
Format in all cases: functional, organism-based
[1] = system: Mycobacterium tuberculosis; test: Antituberculosis activity against multidrug-resistant Mycobacterium tuberculosis LAM1 assessed as growth inhibition at 0.1 ug/ml measured everyday by BACTEC assay
[2] = system: Mycobacterium tuberculosis; test: Antituberculosis activity against multidrug-resistant Mycobacterium tuberculosis LAM1 assessed as growth inhibition at <= 10 ug/ml measured everyday by BACTEC assay
[3] = system: Mycobacterium tuberculosis; test: Antituberculosis activity against multidrug-resistant Mycobacterium tuberculosis LAM1 assessed as growth inhibition at 1 to 5 ug/ml measured everyday by BACTEC assay

NNC(=O)c1ccncc1 [ISONIAZID]
growth inhibition (GI) [1]: inactive

CCOC(=O)/N=N/C(=O)Nc1ccc(C)cc1
growth inhibition (GI) [2]: inactive

O=C(/N=N/c1ccc(C(F)(F)F)cc1)Nc1ccccc1
growth inhibition (GI) [3]: Active
